Measurements from ChEMBL document CHEMBL1201862, “PubChem BioAssay data set” (2004).
Several values for one entry are separate records, joined by “and”; a condition that tells them apart may be missing. Equal entries are not always repeated.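 Where inhibition never reached the appropriate level, the endpoint shown equals the highest concentration tested. Otherwise, values were interpolated linearly from a five-concentration, 48-hour dose response in 96-well plates. The concentration for 50% growth inhibition is given as GI50.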 Activity calls are given as the source filed them. Rule as the data show it: active = GI50 up to about 1.1 µM and inactive = higher.

Legend:
Experiment in all cases: NCI anticancer screen, dose series, 48 h
SW-620 = test system: SW-620
EKVX = test system: EKVX
BT-549 = test system: BT-549
A498 = test system: A498
UACC-257 = test system: UACC-257
OVCAR-8 = test system: OVCAR-8
SK-MEL-5 = test system: SK-MEL-5
A549 = test system: A549
MDA-N = test system: MDA-N
HCC 2998 = test system: HCC 2998
IGROV-1 = test system: IGROV-1
MDA-MB-435 = test system: MDA-MB-435
NCI-H460 = test system: NCI-H460
SK-MEL-2 = test system: SK-MEL-2
KM12 = test system: KM12
U-251 = test system: U-251
HCT-116 = test system: HCT-116
MDA-MB-231 = test system: MDA-MB-231
SF-268 = test system: SF-268

Measured: GI50

O=C(O)CCCSc1nc2ccccc2s1
inactive: SW-620 > 100 µM | EKVX > 100 µM | BT-549 > 100 µM | A498 > 100 µM | UACC-257 > 100 µM | OVCAR-8 > 100 µM | SK-MEL-5 > 100 µM | A549 > 100 µM | MDA-N > 100 µM | HCC 2998 > 100 µM | IGROV-1 > 100 µM | MDA-MB-435 > 100 µM | NCI-H460 > 100 µM | SK-MEL-2 > 100 µM | KM12 > 100 µM | U-251 > 100 µM | HCT-116 > 100 µM | MDA-MB-231 > 100 µM | SF-268 > 100 µM

CC(=O)c1c(C)[n+]([O-])c2cc(Cl)c(Cl)cc2[n+]1[O-]
inactive: SW-620 17.7 µM | EKVX 28.6 µM | BT-549 15.6 µM | A498 23.7 µM | UACC-257 17.6 µM | OVCAR-8 14.2 µM | SK-MEL-5 11.6 µM | A549 19.2 µM | MDA-N 22.6 µM | HCC 2998 21.6 µM | IGROV-1 4.98 µM | MDA-MB-435 21.3 µM | NCI-H460 12 µM | SK-MEL-2 27.6 µM | KM12 10.3 µM | U-251 21.8 µM | HCT-116 15.6 µM | MDA-MB-231 22.1 µM | SF-268 28.3 µM

Clc1ccc(CCN(CCc2ccc(Cl)c(Cl)c2)CCN2CCCC2)cc1Cl
inactive: SW-620 1.72 µM | EKVX 2.05 µM | BT-549 2.04 µM | A498 1.77 µM | UACC-257 1.78 µM | OVCAR-8 1.68 µM | SK-MEL-5 1.81 µM | A549 1.74 µM | MDA-N 1.87 µM | HCC 2998 1.68 µM | IGROV-1 1.58 µM | MDA-MB-435 1.44 µM | NCI-H460 1.86 µM | SK-MEL-2 1.67 µM | KM12 1.67 µM | U-251 1.6 µM | HCT-116 1.69 µM | MDA-MB-231 1.56 µM | SF-268 1.73 µM

O=C1OC(CN2CCN(c3ccccc3)CC2)CN1C(=S)Nc1ccccc1 (stereo not given)
inactive: SW-620 > 100 µM | EKVX > 100 µM | BT-549 > 100 µM | A498 > 100 µM | UACC-257 > 100 µM | OVCAR-8 > 100 µM | SK-MEL-5 > 100 µM | A549 > 100 µM | MDA-N > 100 µM | HCC 2998 > 100 µM | IGROV-1 > 100 µM | MDA-MB-435 > 100 µM | NCI-H460 23.8 µM | SK-MEL-2 31.8 µM | KM12 88.3 µM | U-251 > 100 µM | HCT-116 > 100 µM | MDA-MB-231 > 100 µM | SF-268 > 100 µM

O=C(Nc1nnc(-c2ccc(Cl)cc2)o1)C(SC(=S)N1CCCCC1)c1ccccc1 (stereo not given)
inactive: SW-620 33.3 µM | EKVX 20.7 µM | BT-549 17.6 µM | A498 18.5 µM | UACC-257 21.7 µM | OVCAR-8 22.1 µM | SK-MEL-5 15.7 µM | A549 16.4 µM | MDA-N 15.5 µM | HCC 2998 21.4 µM | IGROV-1 9.38 µM | MDA-MB-435 21.2 µM | NCI-H460 7.6 µM | SK-MEL-2 15.7 µM | KM12 24.8 µM | U-251 13 µM | HCT-116 12.7 µM | MDA-MB-231 19.4 µM | SF-268 6.5 µM

CC(=O)c1cccc2c1CC1(C2)Cc2ccc3c(c2C1=O)CCC3 (stereo not given)
inactive: SW-620 55.2 µM | EKVX 17.9 µM | BT-549 82.2 µM | A498 > 100 µM | UACC-257 14.8 µM | OVCAR-8 57.1 µM | SK-MEL-5 14 µM | A549 23.3 µM | MDA-N 49.1 µM | HCC 2998 15 µM | IGROV-1 74 µM | MDA-MB-435 32.1 µM | NCI-H460 33.3 µM | SK-MEL-2 26.2 µM | KM12 29.6 µM | U-251 47.1 µM | HCT-116 27.7 µM | MDA-MB-231 32.6 µM | SF-268 40.7 µM

CCOC(=O)C(O)Cc1cnc2ccccc2n1 (stereo not given)
inactive: SW-620 > 100 µM | EKVX 73.5 µM | BT-549 > 100 µM | A498 > 100 µM | UACC-257 > 100 µM | OVCAR-8 > 100 µM | SK-MEL-5 > 100 µM | A549 > 100 µM | MDA-N > 100 µM | HCC 2998 > 100 µM | IGROV-1 94.2 µM | MDA-MB-435 > 100 µM | NCI-H460 92.3 µM | SK-MEL-2 > 100 µM | KM12 > 100 µM | U-251 > 100 µM | HCT-116 > 100 µM | MDA-MB-231 > 100 µM | SF-268 > 100 µM

CC1CNC(c2ccc(COc3ccc(C4=NC(C)CN4)cc3)cc2)=N1 (stereo not given)
inactive: SW-620 67.9 µM | EKVX > 100 µM | BT-549 > 100 µM | A498 > 100 µM | UACC-257 16.9 µM | OVCAR-8 72.6 µM | SK-MEL-5 28.6 µM | A549 21.2 µM | MDA-N 82.2 µM | HCC 2998 46.5 µM | IGROV-1 > 100 µM | MDA-MB-435 61 µM | NCI-H460 23.4 µM | SK-MEL-2 18.6 µM | KM12 27.4 µM | U-251 28.5 µM | HCT-116 39.1 µM | MDA-MB-231 45.9 µM | SF-268 54.3 µM

COCn1c2ccc(OC(C)=O)cc2c2c(=O)oc(C)nc21
inactive: SW-620 > 100 µM | EKVX > 100 µM | BT-549 > 100 µM | A498 50.4 µM | UACC-257 > 100 µM | OVCAR-8 > 100 µM | SK-MEL-5 > 100 µM | A549 > 100 µM | MDA-N > 100 µM | HCC 2998 > 100 µM | IGROV-1 > 100 µM | MDA-MB-435 > 100 µM | NCI-H460 > 100 µM | SK-MEL-2 > 100 µM | KM12 > 100 µM | U-251 > 100 µM | HCT-116 > 100 µM | MDA-MB-231 > 100 µM | SF-268 > 100 µM

COC(=O)[C@H](Cc1ccccc1)NC(=O)[C@H](Cc1ccccc1)NC(=O)CN1C(=O)[C@@H]2C3C=CC(C3)[C@@H]2C1=O
inactive: SW-620 16.5 µM and 20.9 µM | EKVX 19.8 µM and 18.7 µM | BT-549 16.6 µM and 18.2 µM | A498 22.9 µM and 16.8 µM | UACC-257 17.6 µM and 16.4 µM | OVCAR-8 14.8 µM and 19.6 µM | SK-MEL-5 18.2 µM and 15 µM | A549 22 µM and 21.1 µM | MDA-N 16.5 µM and 17.2 µM | HCC 2998 17.3 µM and 16.7 µM | IGROV-1 16.5 µM and 12.9 µM | MDA-MB-435 15.3 µM and 17.3 µM | NCI-H460 21.2 µM and 20.6 µM | SK-MEL-2 18.2 µM and 17.9 µM | KM12 20.7 µM and 17.1 µM | U-251 16.4 µM and 17.6 µM | HCT-116 16.6 µM and 14.3 µM | MDA-MB-231 17.3 µM and 17 µM | SF-268 13.2 µM and 17.7 µM
